From ChEMBL document CHEMBL1142855, “Hydroxylated N-alkyl-4-piperidinyl-2,3-diarylpyrrole derivatives as potent broad-spectrum anticoccidial agents” (Bioorg Med Chem Lett, 2005)

How the values were obtained:
Eimeria tenella [1] = test: Anticoccidial activity as percentage reduction in oocyst production in birds infected with Eimeria tenella after 100 ppm dose; Range is 50-79%; format: functional
Eimeria acervulina = test: Anticoccidial activity as percentage reduction in oocyst production in birds infected with Eimeria acervulina after 100 ppm dose; format: functional
Eimeria tenella [2] = test: Anticoccidial activity as percentage reduction in oocyst production in birds infected with Eimeria tenella after 100 ppm dose; format: functional
[3] = biological target: cGMP-dependent protein kinase (Eimeria tenella, UniProt Q8MMZ8); test: Inhibitory activity against cGMP-dependent protein kinase from Eimeria tenella
cGMP-dependent protein kinase, sequence (Q8MMZ8 whole entry): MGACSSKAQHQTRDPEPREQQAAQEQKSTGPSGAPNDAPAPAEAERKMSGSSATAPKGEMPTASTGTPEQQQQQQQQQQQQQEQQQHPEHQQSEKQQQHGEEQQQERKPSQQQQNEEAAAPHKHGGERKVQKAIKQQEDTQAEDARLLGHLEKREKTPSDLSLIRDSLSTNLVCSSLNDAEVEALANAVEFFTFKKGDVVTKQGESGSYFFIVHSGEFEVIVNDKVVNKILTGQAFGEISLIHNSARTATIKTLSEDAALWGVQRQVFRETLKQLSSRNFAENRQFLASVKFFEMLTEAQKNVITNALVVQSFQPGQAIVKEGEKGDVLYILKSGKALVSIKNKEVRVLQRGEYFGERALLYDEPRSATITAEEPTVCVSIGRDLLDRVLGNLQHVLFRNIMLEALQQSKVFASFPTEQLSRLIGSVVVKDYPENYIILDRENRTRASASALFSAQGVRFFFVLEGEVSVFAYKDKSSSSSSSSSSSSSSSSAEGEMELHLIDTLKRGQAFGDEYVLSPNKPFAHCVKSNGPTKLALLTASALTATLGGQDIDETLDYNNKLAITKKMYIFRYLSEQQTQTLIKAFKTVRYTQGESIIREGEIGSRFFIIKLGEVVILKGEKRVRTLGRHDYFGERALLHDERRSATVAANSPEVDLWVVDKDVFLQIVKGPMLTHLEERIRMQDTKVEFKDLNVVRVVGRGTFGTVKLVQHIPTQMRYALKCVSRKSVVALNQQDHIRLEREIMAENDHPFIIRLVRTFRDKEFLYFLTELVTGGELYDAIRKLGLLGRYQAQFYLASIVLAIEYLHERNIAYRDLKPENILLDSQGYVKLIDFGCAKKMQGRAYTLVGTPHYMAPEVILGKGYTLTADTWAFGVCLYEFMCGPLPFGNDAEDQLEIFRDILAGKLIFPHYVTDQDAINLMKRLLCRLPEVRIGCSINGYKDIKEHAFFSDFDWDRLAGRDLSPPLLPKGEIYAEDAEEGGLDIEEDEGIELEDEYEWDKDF

OCCCN1CCC(c2cc(-c3ccncc3)c(-c3ccc(F)cc3)[nH]2)CC1
Anticoccidial Activity (Eimeria tenella [1]): 79%
Anticoccidial Activity (Eimeria acervulina): >80%

OCCN1CCC(c2cc(-c3ccncc3)c(-c3ccc(F)cc3)[nH]2)CC1
Anticoccidial Activity (Eimeria acervulina): >80%
Anticoccidial Activity (Eimeria tenella [2]): >80%

CCCN1CCC(c2cc(-c3ccncc3)c(-c3ccc(F)cc3)[nH]2)CC1
Anticoccidial Activity (Eimeria acervulina): <50%
Anticoccidial Activity (Eimeria tenella [2]): <50%

CC(O)[C@H](CO)N1CCC(c2cc(-c3ccncc3)c(-c3ccc(F)cc3)[nH]2)CC1 (stereo partly specified)
Anticoccidial Activity (Eimeria acervulina): >80%
Anticoccidial Activity (Eimeria tenella [2]): >80%
IC50 [3]: 820 pM

OCCCCN1CCC(c2cc(-c3ccncc3)c(-c3ccc(F)cc3)[nH]2)CC1
Anticoccidial Activity (Eimeria acervulina): >80%
Anticoccidial Activity (Eimeria tenella [2]): >80%
IC50 [3]: 1340 pM

OC(COCc1ccco1)CN1CCC(c2cc(-c3ccncc3)c(-c3ccc(F)cc3)[nH]2)CC1 (stereo unspecified)
Anticoccidial Activity (Eimeria acervulina): <50%
Anticoccidial Activity (Eimeria tenella [2]): <50%
IC50 [3]: 820 pM

C[C@H](O)CN1CCC(c2cc(-c3ccncc3)c(-c3ccc(F)cc3)[nH]2)CC1
Anticoccidial Activity (Eimeria acervulina): >80%
Anticoccidial Activity (Eimeria tenella [2]): >80%
IC50 [3]: 480 pM

CCC(O)CN1CCC(c2cc(-c3ccncc3)c(-c3ccc(F)cc3)[nH]2)CC1 (stereo unspecified)
Anticoccidial Activity (Eimeria acervulina): >80%
Anticoccidial Activity (Eimeria tenella [2]): >80%
IC50 [3]: 710 pM

CCCC(O)CN1CCC(c2cc(-c3ccncc3)c(-c3ccc(F)cc3)[nH]2)CC1 (stereo unspecified)
Anticoccidial Activity (Eimeria acervulina): <50%
Anticoccidial Activity (Eimeria tenella [2]): <50%
IC50 [3]: 380 pM

CCOCC(O)CN1CCC(c2cc(-c3ccncc3)c(-c3ccc(F)cc3)[nH]2)CC1 (stereo unspecified)
Anticoccidial Activity (Eimeria tenella [1]): 79%
Anticoccidial Activity (Eimeria acervulina): >80%
IC50 [3]: 590 pM

CCCCC(O)CN1CCC(c2cc(-c3ccncc3)c(-c3ccc(F)cc3)[nH]2)CC1 (stereo unspecified)
Anticoccidial Activity (Eimeria acervulina): <50%
Anticoccidial Activity (Eimeria tenella [2]): <50%
IC50 [3]: 410 pM

CC(O)C(O)CN1CCC(c2cc(-c3ccncc3)c(-c3ccc(F)cc3)[nH]2)CC1 (stereo unspecified)
Anticoccidial Activity (Eimeria acervulina): >80%
Anticoccidial Activity (Eimeria tenella [2]): >80%
IC50 [3]: 400 pM

OC(Cc1ccccc1)CN1CCC(c2cc(-c3ccncc3)c(-c3ccc(F)cc3)[nH]2)CC1 (stereo unspecified)
Anticoccidial Activity (Eimeria acervulina): >80%
Anticoccidial Activity (Eimeria tenella [2]): <50%
IC50 [3]: 1280 pM

OCCCCCN1CCC(c2cc(-c3ccncc3)c(-c3ccc(F)cc3)[nH]2)CC1
Anticoccidial Activity (Eimeria acervulina): >80%
Anticoccidial Activity (Eimeria tenella [2]): >80%
IC50 [3]: 1460 pM

CC(C)(C)OCC(O)CN1CCC(c2cc(-c3ccncc3)c(-c3ccc(F)cc3)[nH]2)CC1 (stereo unspecified)
Anticoccidial Activity (Eimeria acervulina): <50%
Anticoccidial Activity (Eimeria tenella [2]): <50%
IC50 [3]: 980 pM

C=CCOCC(O)CN1CCC(c2cc(-c3ccncc3)c(-c3ccc(F)cc3)[nH]2)CC1 (stereo unspecified)
Anticoccidial Activity (Eimeria acervulina): <50%
Anticoccidial Activity (Eimeria tenella [2]): <50%
IC50 [3]: 800 pM

OC(COCc1ccccc1)CN1CCC(c2cc(-c3ccncc3)c(-c3ccc(F)cc3)[nH]2)CC1 (stereo unspecified)
Anticoccidial Activity (Eimeria acervulina): <50%
Anticoccidial Activity (Eimeria tenella [2]): <50%
IC50 [3]: 470 pM

COC[C@H](O)CN1CCC(c2cc(-c3ccncc3)c(-c3ccc(F)cc3)[nH]2)CC1
Anticoccidial Activity (Eimeria acervulina): >80%
Anticoccidial Activity (Eimeria tenella [2]): >80%
IC50 [3]: 690 pM

COC[C@@H](O)CN1CCC(c2cc(-c3ccncc3)c(-c3ccc(F)cc3)[nH]2)CC1
Anticoccidial Activity (Eimeria acervulina): >80%
Anticoccidial Activity (Eimeria tenella [2]): >80%
IC50 [3]: 560 pM

CC(=O)N1C[C@H](O)CC1CN1CCC(c2cc(-c3ccncc3)c(-c3ccc(F)cc3)[nH]2)CC1 (stereo partly specified)
IC50 [3]: 2200 pM

CC(O)[C@H](C)N1CCC(c2cc(-c3ccncc3)c(-c3ccc(F)cc3)[nH]2)CC1 (stereo partly specified)
Anticoccidial Activity (Eimeria acervulina): >80%
Anticoccidial Activity (Eimeria tenella [2]): >80%
IC50 [3]: 860 pM

CC(C)OCC(O)CN1CCC(c2cc(-c3ccncc3)c(-c3ccc(F)cc3)[nH]2)CC1 (stereo unspecified)
Anticoccidial Activity (Eimeria acervulina): <50%
Anticoccidial Activity (Eimeria tenella [2]): <50%
IC50 [3]: 690 pM

CC(O)[C@@H](CO)N1CCC(c2cc(-c3ccncc3)c(-c3ccc(F)cc3)[nH]2)CC1 (stereo partly specified)
Anticoccidial Activity (Eimeria acervulina): >80%
Anticoccidial Activity (Eimeria tenella [2]): >80%
IC50 [3]: 1010 pM

CC(=O)OCCN1CCC(c2cc(-c3ccncc3)c(-c3ccc(F)cc3)[nH]2)CC1
Anticoccidial Activity (Eimeria acervulina): <50%
Anticoccidial Activity (Eimeria tenella [2]): <50%
IC50 [3]: 2080 pM

CCCCCCC(O)CN1CCC(c2cc(-c3ccncc3)c(-c3ccc(F)cc3)[nH]2)CC1 (stereo unspecified)
Anticoccidial Activity (Eimeria acervulina): <50%
Anticoccidial Activity (Eimeria tenella [2]): <50%
IC50 [3]: 1010 pM

C[C@@H](O)CN1CCC(c2cc(-c3ccncc3)c(-c3ccc(F)cc3)[nH]2)CC1
Anticoccidial Activity (Eimeria acervulina): >80%
Anticoccidial Activity (Eimeria tenella [2]): >80%
IC50 [3]: 1200 pM

OC(COc1ccccc1)CN1CCC(c2cc(-c3ccncc3)c(-c3ccc(F)cc3)[nH]2)CC1 (stereo unspecified)
Anticoccidial Activity (Eimeria acervulina): <50%
Anticoccidial Activity (Eimeria tenella [2]): <50%
IC50 [3]: 660 pM

O[C@H]1CNC(CN2CCC(c3cc(-c4ccncc4)c(-c4ccc(F)cc4)[nH]3)CC2)C1 (stereo partly specified)
IC50 [3]: 160 pM

CC(O)[C@@H](C)N1CCC(c2cc(-c3ccncc3)c(-c3ccc(F)cc3)[nH]2)CC1 (mixture of isomers)
Anticoccidial Activity (Eimeria acervulina): >80%
Anticoccidial Activity (Eimeria tenella [2]): >80%
IC50 [3]: 940 pM

OCC(O)CN1CCC(c2cc(-c3ccncc3)c(-c3ccc(F)cc3)[nH]2)CC1 (stereo in doubt; 5a)
Anticoccidial Activity (Eimeria acervulina): <50%
Anticoccidial Activity (Eimeria tenella [2]): >80%
IC50 [3]: 510 pM

OCC(O)CN1CCC(c2cc(-c3ccncc3)c(-c3ccc(F)cc3)[nH]2)CC1 (stereo in doubt; 5b)
Anticoccidial Activity (Eimeria acervulina): >80%
IC50 [3]: 710 pM

OCC(O)CN1CCC(c2cc(-c3ccncc3)c(-c3ccc(F)cc3)[nH]2)CC1 (stereo in doubt; 5e)
IC50 [3]: 1270 pM
